# Laboratory results: PubChem BioAssay (NCI)
# Where “and” joins values, the source holds several entries; their conditions need not be identical. Equal values may be shown once.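 In this assay, cells in 96-well plates receive the compound at five concentrations for 48 hours. Endpoints are linearly interpolated between the surrounding concentrations. GI50: concentration for 50% inhibition of growth. TGI is the concentration that stops growth completely.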
# Assays:
# Experiment in all cases: NCI tumour cell line growth inhibition, 48 h
# MDA-MB-231 breast = test system: MDA-MB-231 breast
# NCI/ADR-RES ovarian = test system: NCI/ADR-RES ovarian
# SNB-75 CNS = test system: SNB-75 CNS
# SNB-19 CNS = test system: SNB-19 CNS
# EKVX NSCLC = test system: EKVX NSCLC
# HCC-2998 colon = test system: HCC-2998 colon
# ACHN renal = test system: ACHN renal
# CCRF-CEM leukemia = test system: CCRF-CEM leukemia
# SK-MEL-28 melanoma = test system: SK-MEL-28 melanoma
# SN12C renal = test system: SN12C renal
Compound,GI50 (MDA-MB-231 breast),TGI (MDA-MB-231 breast),GI50 (NCI/ADR-RES ovarian),TGI (NCI/ADR-RES ovarian) [µM],GI50 (SNB-75 CNS) [µM],TGI (SNB-75 CNS) [µM],GI50 (SNB-19 CNS),TGI (SNB-19 CNS) [µM],GI50 (EKVX NSCLC),TGI (EKVX NSCLC),GI50 (HCC-2998 colon),TGI (HCC-2998 colon),GI50 (ACHN renal),TGI (ACHN renal),GI50 (CCRF-CEM leukemia),TGI (CCRF-CEM leukemia) [µM],GI50 (SK-MEL-28 melanoma),TGI (SK-MEL-28 melanoma),GI50 (SN12C renal),TGI (SN12C renal)
CS(=O)(=O)c1ccc(Oc2cc(F)cc(C#N)c2)c2c1[C@H](O)[C@H](F)[C@@H]2F,> 100 µM,> 100 µM,> 100 µM,> 100,> 100,> 100,> 100 µM,> 100,> 100 µM,> 100 µM,> 100 µM,> 100 µM,> 100 µM,> 100 µM,> 100 µM,> 100,> 100 µM,> 100 µM,> 100 µM,> 100 µM
Cn1ccnc1C(=O)/C=C/c1ccc(CC(=O)Nc2ccc(Cl)cc2)cc1,5.23 µM,> 25 µM,2.22 µM,> 25,1.9,> 25,1.77 µM,> 25,15.6 µM,> 25 µM,3.42 µM,> 25 µM,15 µM,> 25 µM,1.46 µM,> 25,> 25 µM,> 25 µM,3.04 µM,> 25 µM
CNc1ccccc1C(=O)N/N=C/C=C/c1ccccc1,4.11 µM,62 µM,0.568 µM,> 100,0.673,,7.01 µM,> 100,,,8.82 µM,36.3 µM,11.8 µM,> 100 µM,2.39 µM,97,6.88 µM,> 100 µM,3.22 µM,> 100 µM
C=C1C(=O)O[C@H]2[C@H]1CC/C(COC(=O)C(=O)c1c[nH]c3ccccc13)=C\CC[C@@]1(C)O[C@@H]21,2.46 µM,5.5 µM,3.92 µM,19.4,2.29,11.1,10.6 µM,26,8.31 µM,20.7 µM,1.95 µM,4.02 µM,2.13 µM,6.1 µM,1.27 µM,13.1,2.02 µM,4.23 µM,2.72 µM,7.11 µM
CC(C)C[C@@H](NC(=O)[C@@H](Cc1ccccc1)NC(=O)c1cnccn1)B1O[C@H]2[C@H](O)[C@@H](C(=O)NCCCC[C@@H]3NC(=O)[C@@H](Cc4ccccc4)NC(=O)[C@H](CC(=O)O)NC(=O)CNC(=O)[C@H](CCCN=C(N)N)NC3=O)O[C@@H](CN)[C@H]2O1,0.0124 µM and 0.00828 µM,0.0574 µM and 0.0692 µM,0.0984 µM and 0.0844 µM,0.586,0.0188,0.0516,0.0136 µM and 0.005 µM,5.12,0.0239 µM and 0.0171 µM,0.568 µM and 0.545 µM,0.016 µM and 0.00799 µM,0.0323 µM and 0.0165 µM,0.00449 µM and 0.005 µM,0.494 µM and 0.153 µM,0.00347 µM and 0.005 µM,,0.00766 µM and 0.005 µM,0.285 µM and 0.235 µM,0.0117 µM and 0.013 µM,0.055 µM and 0.485 µM
CCN1C(=O)C/C(=C\C(C)=O)Nc2ccccc21,> 100 µM,> 100 µM,> 100 µM,> 100,,> 67.1,,> 100,,> 100 µM,,> 100 µM,> 100 µM,> 100 µM,,> 100,,> 100 µM,,
O=[N+]([O-])c1ccc(N2CCN(Cc3ccccc3)CC2)c2c1no[n+]2[O-],1.56 µM,3.08 µM,2.27 µM,12.3,0.954,2.26,2.23 µM,6.51,,,1.78 µM,3.33 µM,0.85 µM,2.2 µM,0.155 µM,2.49,3.56 µM,9.07 µM,1.63 µM,3.53 µM
